Where a SMILES comes first, the peptide text is derived from it.
Key:
E. coli MC1061 = assay: Spot dilution assay of E. coli producing the ubonodin variant from pUboABC; type: cell-based; conditions: variant in pUboABC backbone in E. coli MC1061, induction with 100 μM IPTG, ten-fold serial dilutions, biological duplicates
Description: Cultures of E. coli MC1061 transformed with the appropriate plasmids were grown. Aliquots of the cultures were sampled prior to and after induction with 100 μM IPTG, and 10-fold serial dilutions were plated. […]
All cloning was conducted by PCR amplification (using Q5 polymerase), restriction digestion, ligation, (using T4 DNA ligase), and transformation into chemically competent E. coli XL1-Blue. All cloning with a pUboABC backbone was done by plating transformation mixt ures onto Lysogeny Broth (LB) plates supplemented with 100 μg/mL ampicillin and 0.2% w/v glucose, and colonies were inoculated into LB media supplemented with 100 μ g/mL ampicillin and 0.2% w/v glucose to suppress any leaky expression. Cloning for all other plasmid constructs was done by plating transformation mixtures onto Lysogeny Broth (LB) plates supplemented with 100 μ g/ m L ampicillin, and colonies were inoculated into LB media supplemented with 100 μ g/ m L ampicillin.
Plasmids were extracted using Qiagen QIAprep Spin Miniprep Kit and sequence verified using Sanger sequencing. All primer sequences are listed in Table S7, and all plasmid constructs are […]
pUboABC was cloned by amplifying pWC99 with pQE-80 NheI For and pAT8 Nco I Rev.
The amplicon was ligated into pWC99 digested with Nhe I and Nco I. pUboBC was cloned by digesting pUboABC with Nh e I and Nco I and ligating that fragment into pQE-80 digested with Nhe I and Nco I. pUboABC S5H I16P and pUboABCD S5H I16P were cloned with overlap PCR using pWC99 as the template. One fragment was amplified with pQE-80 EcoRI For and S5H I16P Rev v2 and the second fragment was amplified with S5H I16P For v2 and pQE-80 HindII I Rev. […]
All remaining plasmid constructs were cloned with overlap PCR. One fragment was amplified with Xho I For Lib and a mutagenic reverse primer and the second fragment was amplified with NheI Rev Lib and a mutagenic forward primer. The templates and mutagenic […]
The fragments were joined with a second round of PCR and amplified with XhoI For Lib and NheI Rev Lib. Amplicons were ligated into the appropriate plasmid backbone digested with Xho I and Nhe I-HF. The plasmid backbones […]
The appropriate plasmid was transformed into electrocompetent E. coli MC1061, plated onto LB plates supplemented with 100 μ g/ m L ampicillin and 0.2% w/v glucose, and incubated at 30 °C for 16 hours. Colonies were inoculated into LB media supplemented with 100 μ g/ m L ampicillin and 0.2% w/v glucose and grown at 37 °C for 16 hours. These cultures were sub-cultured to an OD600 of 0.02 in 50 mL of LB media supplemented with 100 μg/mL ampicillin in a 250 mL flask. Once the OD600 reached 0.3, a 1 mL aliquot was sampled immediately prior to inducing the cultures with 100 μM isopropyl β-D-1-thiogalactopyranoside (IPTG). The aliquot was washed with Phosphate-Buffered Saline (PBS) two times and ten-fold serial dilutions were spotted onto LB plates supplemented with 100 μ g/ m L ampicillin and 0.2% w/v glucose. For each following timepoint, a 1 mL sample of each culture was withdrawn, washed with PBS two times, and ten- […]
fold serial dilutions were spotted onto LB plates supplemented with 100 μ g/m L ampicillin and 0.2% w/v glucose. Plates were incubated for 16 hours at 37 °C before imaging. […]
250 mL flask. Ten-fold serial dilutions of the culture were plated onto LB plates supplemented with 100 μ g/ m L ampicillin and 0.2% w/v glucose. The cultures were then grown at 37 °C, and once the OD600 reached 0.3, a 1 mL sample of the culture was withdrawn immediately before the cultures were induced with 10 μM or 100 μM IPTG and returned to grow longer. […]
All plates were incubated at 37 °C for 16 hours, after which the number of colonies was counted. Three biological replicates of this assay were done.
Co-Culture of E. coli MC1061 pUboABC and E. coli MC1061 pUboBC pUboABC (0.9 ng) and pUboBC (0.1 ng) were transformed into electrocompetent E. coli MC1061 with a one- hour outgrowth at 37 °C in LB media supplemented with 0.2% w/v glucose. […]

B. cenocepacia AU0756 = tested on: B. cenocepacia AU0756
Description: We proceeded to test the antimicrobial activity of the selected variants against two clinical isolates of the Bcc, B. cenocepacia AU0756 and B. cenocepacia AU24362, in broth microdilution assays. […] We revisited these measurements using broth microdilution assays following the Clinical & Laboratory Standards Institute (CLSI) standard.
Broth microdilution assays of the ubonodin variants were conducted using B. cenocepacia AU0756 and B. cenocepacia AU24362 with guidelines provided by the Clinical & Laboratory Standards Institute (CLSI).

[1] = tested on: RNA polymerase (RNAP) in E. coli MC1061; assay: High-throughput growth-based screen with NGS (enrichment value) for RNA polymerase inhibition; type: cell-based; design: key to Experimental observation (enrichment observed in the screen): Dropout: Many variants inhibit RNAP so strongly that they cannot be detected by NGS after IPTG induction (referred to as dropout variants); conditions: for Experimental observation (enrichment observed in the screen): Table S4, variants whose MICs were tested; for Enrichment: case.csv of the DeepLasso code, screen stage and IPTG concentration not stated
Description: The single mutant library was analyzed by NGS at multiple stages of sample preparation (Figure 2A) to track its evolution throughout the screen. Specifically, the frequency of each possible aa variant was computed at each stage by summing up counts for each distinct translated sequence and dividing by the total number of counts for all variants (eq S1, SI Methods). Since cells expressing an RNAP-inhibiting ubonodin variant will have growth defects relative to cells with a nontoxic variant, RNAP-inhibiting ubonodin variants are expected to decrease in frequency throughout the screen.
First, the naïve library (digested PCR products) was sequenced. These digested PCR products were cloned into the pUboABC backbone and transformed into a recA^– cloning strain. This plasmid library was sequenced again to capture any changes upon transformation of the library into E. coli. The change between the naïve library and the cloning transformation library was minimal (Figure S6A). This plasmid library was transformed into the screening strain MC1061, and the plasmid from resulting colonies was also sequenced. The library in MC1061 was grown up en masse in liquid culture to mid log phase, and a portion of the culture was plated. These colonies were scraped, then the plasmid was isolated and sequenced. Finally, the liquid culture was induced with IPTG, after which a portion of the culture was plated and the plasmid was isolated and sequenced. It is key to note that all samples from liquid cultures were plated prior to sequencing to ensure that only viable cells were sequenced. […] The rationale for sequencing at these five different stages was the possibility that leaky expression of uboA would affect the frequency of active mutants prior to IPTG induction. Indeed, we observed that the frequency of some uboA mutants dropped as soon as they were transformed into the screening strain MC1061 while the frequency of other mutants climbed (Figure 2B).
The behavior of the point variants (i.e., variants with a single aa substitution) was examined by calculating their enrichment values, the base-2 logarithm of the ratio of the variant’s frequency at a specific step of the screen to the variant’s frequency in the cloning transformation library (eq S3, Figure S6). The most relevant enrichment value for ubonodin activity is the comparison between the post-IPTG library and the cloning transformation library (Figure 2A). […] Many variants inhibit RNAP so strongly that they cannot be detected by NGS after IPTG induction (referred to as dropout variants). […] Variants with a stop codon mutation and variants containing an aa substitution at Tyr9 or Tyr27 (positions conserved in MccJ25 and shown to be crucial for RNAP inhibition, see Figure S7)[26] have positive enrichment values (1.2–1.7), serving as quality control for the screen (Figure 3A). Strikingly, 63% of point variants decreased in frequency, indicating a high tolerance to aa substitution. […] The positions with active variants are Asn11 through Ser24 in the loop and Asp3, Ser5, and Ala7 in the ring.
The single mutant and double mutant libraries were transformed into E. coli MC1061. Colonies were resuspended in media and subcultured into a larger culture. Aliquots of the cultures were sampled prior to and after induction with 10 μM IPTG and 100 μM IPTG and plated. After 16 h of incubation, the colonies were resuspended in media and plasmids were miniprepped.
Samples were PCR amplified with barcoded primers and combined such that double mutant library samples were over-represented compared to single mutant library samples to provide sufficient coverage of the larger double mutant library. Samples were sequenced using an Illumina MiSeq Micro 300nt and an Illumina NovaSeq 6000 Sequencing System. Downstream analysis of the data was conducted with Python, MATLAB, and R.
V to reduce genomic DNA contamination. One fragment was amplified with Xho I For Lib and a […]

| Compound | Inhibits Growth (E. coli MC1061) | B. cenocepacia AU0756 MIC (B. cenocepacia AU0756) | Experimental observation (enrichment observed in the screen) [1] | Enrichment [1] |
| --- | --- | --- | --- | --- |
| CC[C@H](C)[C@@H]1NC(=O)[C@H](CO)NC(=O)CNC(=O)[C@H](CC(=O)O)NC(=O)CNC(=O)CNC(=O)CC[C@@H](C(=O)N[C@@H](Cc2ccc(O)cc2)C(=O)N[C@@H](Cc2ccccc2)C(=O)N[C@@H](CC(N)=O)C(=O)N[C@@H](CCCNC(=N)N)C(=O)N2CCC[C@H]2C(=O)N[C@@H](CCSC)C(=O)N[C@@H](Cc2c[nH]cn2)C(=O)N[C@@H](CC(=O)O)C(=O)N[C@@H](Cc2c[nH]cn2)C(=O)N[C@@H](CC(=O)O)C(=O)N[C@@H](Cc2c[nH]c3ccccc23)C(=O)N[C@@H](CCC(N)=O)C(=O)N[C@H](C(=O)N[C@@H](CCSC)C(=O)N[C@@H](CC(=O)O)C(=O)N[C@@H](CO)C(=O)NCC(=O)N[C@@H](Cc2ccc(O)cc2)C(=O)N[C@@H](Cc2ccc(O)cc2)C(=O)NCC(=O)O)[C@@H](C)CC)NC(=O)[C@H](C)NC1=O [I16D] (HELM PEPTIDE1{G.G.D.G.S.I.A.E.Y.F.N.R.P.M.H.D.H.D.W.Q.I.M.D.S.G.Y.Y.G}$PEPTIDE1,PEPTIDE1,1:R1-8:R3$$$V2.0) | Yes | 0.5 to 2 µM | -6.2 | – |
| CC[C@H](C)[C@@H]1NC(=O)[C@H](Cc2c[nH]cn2)NC(=O)CNC(=O)[C@H](CC(=O)O)NC(=O)CNC(=O)CNC(=O)CC[C@@H](C(=O)N[C@@H](Cc2ccc(O)cc2)C(=O)N[C@@H](Cc2ccccc2)C(=O)N[C@@H](CC(N)=O)C(=O)N[C@@H](CCCNC(=N)N)C(=O)N2CCC[C@H]2C(=O)N[C@@H](CCSC)C(=O)N[C@@H](Cc2c[nH]cn2)C(=O)N2CCC[C@H]2C(=O)N[C@@H](Cc2c[nH]cn2)C(=O)N[C@@H](CC(=O)O)C(=O)N[C@@H](Cc2c[nH]c3ccccc23)C(=O)N[C@@H](CCC(N)=O)C(=O)N[C@H](C(=O)N[C@@H](CCSC)C(=O)N[C@@H](CC(=O)O)C(=O)N[C@@H](CO)C(=O)NCC(=O)N[C@@H](Cc2ccc(O)cc2)C(=O)N[C@@H](Cc2ccc(O)cc2)C(=O)NCC(=O)O)[C@@H](C)CC)NC(=O)[C@H](C)NC1=O [S5H I16P] (HELM PEPTIDE1{G.G.D.G.H.I.A.E.Y.F.N.R.P.M.H.P.H.D.W.Q.I.M.D.S.G.Y.Y.G}$PEPTIDE1,PEPTIDE1,1:R1-8:R3$$$V2.0) | Yes | 8 µM | Dropout | – |
| CC[C@H](C)[C@@H]1NC(=O)[C@H](CO)NC(=O)CNC(=O)[C@H](CC(=O)O)NC(=O)CNC(=O)CNC(=O)CC[C@@H](C(=O)N[C@@H](Cc2ccc(O)cc2)C(=O)N[C@@H](Cc2ccccc2)C(=O)N[C@@H](CC(N)=O)C(=O)N[C@@H](Cc2ccccc2)C(=O)N2CCC[C@H]2C(=O)N[C@@H](CCSC)C(=O)N[C@@H](Cc2c[nH]cn2)C(=O)N[C@H](C(=O)N[C@@H](Cc2c[nH]cn2)C(=O)N[C@@H](CC(=O)O)C(=O)N[C@@H](Cc2c[nH]c3ccccc23)C(=O)N[C@@H](CCC(N)=O)C(=O)N[C@H](C(=O)N[C@@H](CCSC)C(=O)N[C@@H](CC(=O)O)C(=O)N[C@@H](CO)C(=O)NCC(=O)N[C@@H](Cc2ccc(O)cc2)C(=O)N[C@@H](Cc2ccc(O)cc2)C(=O)NCC(=O)O)[C@@H](C)CC)[C@@H](C)CC)NC(=O)[C@H](C)NC1=O [R12F] (HELM PEPTIDE1{G.G.D.G.S.I.A.E.Y.F.N.F.P.M.H.I.H.D.W.Q.I.M.D.S.G.Y.Y.G}$PEPTIDE1,PEPTIDE1,1:R1-8:R3$$$V2.0) | Yes | 2 µM | -5.3 | – |
| GGDGSI*EYFNRPMVIHDWQIMDSGMYG | – | – | – | 4.338 |
| GGDGSIAEYFNRPMHIHEWQIM*SGYYG | – | – | – | 4.458 |
